What was measured:
[1] = Protein binding to 6% egg albumin at 20 ug/ml; details: read-out: PPB (converted)
[2] = Prodrug activation in simulated gastric fluid assessed as dexibuprofen regeneration rate at 10 mg by HPLC analysis; details: in vitro
[3] = Solubility of the compound in 0.1 N HCl at 5 mg; assay type: physicochemical; details: buffer
[4] = Solubility of the compound in ethanol at 5 mg; assay type: physicochemical
[5] = Solubility of the compound in DMF at 5 mg; assay type: physicochemical
[6] = Solubility of the compound in 0.1 N NaOH at 5 mg; assay type: physicochemical
[7] = Half life in 80% Homo sapiens (human) plasma at pH 7.4 at 10 mg; assay type: ADME, cell-free; details: 80% human plasma
[8] = Half life in PBS at pH 7.4 by spectrophotometric analysis; assay type: ADME
[9] = Solubility of the compound in chloroform at 5 mg; assay type: physicochemical
[10] = Solubility of the compound in ethyl acetate at 5 mg; assay type: physicochemical
[11] = Solubility of the compound in DMF; assay type: physicochemical
[12] = Solubility of the compound in 0.1 N HCl; assay type: physicochemical; details: buffer
[13] = Solubility of the compound in ethyl acetate; assay type: physicochemical
[14] = Solubility of the compound in chloroform; assay type: physicochemical
[15] = Solubility of the compound in ethanol; assay type: physicochemical
[16] = Solubility of the compound in 0.1 N NaOH; assay type: physicochemical

| fraction unbound at 20 ug/ml [1] | Drug metabolism [2] | solubility [3] | solubility [4] | solubility [5] | solubility [6] | half-life [7] [h] | half-life [8] [h] | solubility [9] | solubility [10] | solubility [11] | solubility [12] | solubility [13] | solubility [14] | solubility [15] | solubility [16] | SMILES |
| --- | --- | --- | --- | --- | --- | --- | --- | --- | --- | --- | --- | --- | --- | --- | --- | --- |
| 0.64 | Not Active | Insoluble | soluble | soluble | soluble | 0.883 | 2.58 | soluble | soluble | – | – | – | – | – | – | COC(=O)C(C)NC(=O)C(C)c1ccc(CC(C)C)cc1 (stereo unspecified) |
| 0.49 | Not Active | Insoluble | soluble | soluble | soluble | 0.883 | 3.16 | soluble | soluble | – | – | – | – | – | – | COC(=O)C(CC(C)C)NC(=O)C(C)c1ccc(CC(C)C)cc1 (stereo unspecified) |
| 0.33 | Not Active | Insoluble | soluble | soluble | soluble | 0.65 | 2.1 | soluble | soluble | – | – | – | – | – | – | CCC(C)OC(=O)C(C)c1ccc(CC(C)C)cc1 (stereo unspecified) |
| – | – | – | – | – | – | – | – | – | – | soluble | Insoluble | soluble | soluble | soluble | soluble | CC(C)Cc1ccc([C@H](C)C(=O)O)cc1 [DEXIBUPROFEN] |
| 0.63 | Not Active | Insoluble | soluble | soluble | soluble | 0.65 | 2.1 | soluble | soluble | – | – | – | – | – | – | CC(C)Cc1ccc(C(C)C(=O)OCc2ccccc2)cc1 (stereo unspecified) |
| 0.77 | Not Active | Insoluble | soluble | soluble | soluble | 0.483 | 2.1 | soluble | soluble | – | – | – | – | – | – | CC(C)Cc1ccc(C(C)C(=O)OCC(O)CO)cc1 (stereo unspecified) |
| 0.53 | Not Active | Insoluble | soluble | soluble | soluble | 0.883 | 2.97 | soluble | soluble | – | – | – | – | – | – | COC(=O)C(Cc1ccccc1)NC(=O)C(C)c1ccc(CC(C)C)cc1 (stereo unspecified) |
| 0.35 | Not Active | Insoluble | soluble | soluble | soluble | 0.65 | 2.1 | soluble | soluble | – | – | – | – | – | – | CC(C)Cc1ccc(C(C)C(=O)OC(C)C)cc1 (stereo unspecified) |
| 0.65 | Not Active | Insoluble | soluble | soluble | soluble | 0.483 | 2.1 | soluble | soluble | – | – | – | – | – | – | CCCCOC(=O)C(C)c1ccc(CC(C)C)cc1 (stereo unspecified) |
| 0.55 | Not Active | Insoluble | soluble | soluble | soluble | 0.883 | 3.3 | soluble | soluble | – | – | – | – | – | – | COC(=O)C(NC(=O)C(C)c1ccc(CC(C)C)cc1)C(C)C (stereo unspecified) |
| 0.76 | Not Active | Insoluble | soluble | soluble | soluble | 0.883 | 2.58 | soluble | soluble | – | – | – | – | – | – | COC(=O)CNC(=O)C(C)c1ccc(CC(C)C)cc1 (stereo unspecified) |
